Active and inactive are the calls of the source.
Experiments:
Estrogen receptor = target: T1, Estrogen receptor (Homo sapiens, UniProt P03372);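 further: potency for inhibiting coactivator peptide recruitment to the receptor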
T1 sequence (P03372 whole entry): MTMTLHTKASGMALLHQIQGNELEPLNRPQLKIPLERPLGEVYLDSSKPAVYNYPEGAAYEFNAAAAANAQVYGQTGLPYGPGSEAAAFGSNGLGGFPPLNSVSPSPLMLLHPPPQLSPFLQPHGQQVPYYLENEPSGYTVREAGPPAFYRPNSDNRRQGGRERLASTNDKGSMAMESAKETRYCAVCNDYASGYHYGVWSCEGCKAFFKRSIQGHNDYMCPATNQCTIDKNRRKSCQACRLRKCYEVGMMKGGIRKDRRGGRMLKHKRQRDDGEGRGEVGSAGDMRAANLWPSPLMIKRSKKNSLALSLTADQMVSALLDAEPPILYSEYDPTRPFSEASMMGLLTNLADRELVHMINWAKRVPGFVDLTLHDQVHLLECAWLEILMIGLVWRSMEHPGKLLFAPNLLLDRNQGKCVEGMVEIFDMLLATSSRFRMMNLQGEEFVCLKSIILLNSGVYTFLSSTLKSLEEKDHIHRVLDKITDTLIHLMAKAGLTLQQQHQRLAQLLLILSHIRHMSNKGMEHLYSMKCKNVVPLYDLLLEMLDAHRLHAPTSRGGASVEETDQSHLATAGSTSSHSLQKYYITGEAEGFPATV

[1] = Luminescent dose response cell-based high throughput screening assay for inhibitors of the Janus kinase 2 mutant JAK2V617F. [Related pubchem assays: 1446 (Primary screen.), 1521 (Confirmation assay.), 1486 (Counter screen.)]; type: functional
[2] = target: T2, Heat shock factor protein 1 (Mus musculus, UniProt P38532); assay: HSF1 potentiators in luciferase reporter cells, confirmation, cell-based, NIH3T3, luminescence, dose retest (AID 435004); type: functional;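 further: stress induced by proteasome inhibitor MG132 added 30 min after compound; luciferase reporter driven by HSF1 response element in NIH3T3 cells; actives raise luminescence as potentiators of the MG132 stress response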
T2 sequence (P38532 whole entry): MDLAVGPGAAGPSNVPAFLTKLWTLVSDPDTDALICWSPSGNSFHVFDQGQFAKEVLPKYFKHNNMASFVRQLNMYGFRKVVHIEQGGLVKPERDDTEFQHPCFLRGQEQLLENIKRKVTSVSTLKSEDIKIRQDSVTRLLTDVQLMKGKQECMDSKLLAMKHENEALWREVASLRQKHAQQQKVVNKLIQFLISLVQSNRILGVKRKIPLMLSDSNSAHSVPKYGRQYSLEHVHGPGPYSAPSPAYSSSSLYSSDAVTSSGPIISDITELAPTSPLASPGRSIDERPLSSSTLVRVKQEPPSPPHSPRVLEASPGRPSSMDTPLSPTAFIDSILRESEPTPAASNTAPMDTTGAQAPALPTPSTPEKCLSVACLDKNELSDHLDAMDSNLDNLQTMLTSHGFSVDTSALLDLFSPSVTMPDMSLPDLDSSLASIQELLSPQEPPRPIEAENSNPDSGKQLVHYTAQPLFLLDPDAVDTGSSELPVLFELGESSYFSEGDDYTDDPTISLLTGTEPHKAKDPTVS

[3] = target: T3, Replicative DNA helicase DnaB (Mycobacterium tuberculosis, UniProt P9WMR3); assay: DnaB intein splicing inhibitors, dose response, biochemical, cell-free fluorescence (AID 449749); type: functional
T3 sequence (P9WMR3 whole entry): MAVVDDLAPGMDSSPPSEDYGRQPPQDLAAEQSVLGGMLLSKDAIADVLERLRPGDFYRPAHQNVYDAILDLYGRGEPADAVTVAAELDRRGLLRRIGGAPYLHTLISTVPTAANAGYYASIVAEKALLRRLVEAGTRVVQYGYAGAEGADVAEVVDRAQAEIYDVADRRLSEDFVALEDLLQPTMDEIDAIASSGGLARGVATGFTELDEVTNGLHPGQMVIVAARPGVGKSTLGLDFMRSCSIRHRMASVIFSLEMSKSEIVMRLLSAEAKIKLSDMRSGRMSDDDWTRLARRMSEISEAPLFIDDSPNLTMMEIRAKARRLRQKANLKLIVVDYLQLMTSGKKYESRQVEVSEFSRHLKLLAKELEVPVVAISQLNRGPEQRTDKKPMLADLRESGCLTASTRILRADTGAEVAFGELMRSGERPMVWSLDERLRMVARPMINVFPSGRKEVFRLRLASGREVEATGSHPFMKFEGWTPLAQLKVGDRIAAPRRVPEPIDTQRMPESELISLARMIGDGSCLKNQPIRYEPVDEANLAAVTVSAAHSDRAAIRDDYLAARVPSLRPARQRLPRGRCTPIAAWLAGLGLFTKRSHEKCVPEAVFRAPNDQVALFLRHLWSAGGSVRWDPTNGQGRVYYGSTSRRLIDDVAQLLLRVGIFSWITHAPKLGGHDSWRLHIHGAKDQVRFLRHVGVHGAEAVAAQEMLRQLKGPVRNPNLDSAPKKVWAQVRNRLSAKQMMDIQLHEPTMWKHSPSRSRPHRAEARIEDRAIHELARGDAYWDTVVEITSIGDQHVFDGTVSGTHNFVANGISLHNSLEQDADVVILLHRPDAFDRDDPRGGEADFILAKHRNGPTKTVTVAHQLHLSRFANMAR

Protein RecA = target: T4, Protein RecA (Mycobacterium tuberculosis, UniProt P9WHJ3); assay: Fluorescence Cell-Free Homogeneous Dose Retest to Identify Inhibitors of RecA-Intein Splicing Activity. [Related pubchem assays (depositor defined):AID2097, AID2223, AID489010, AID492950]; type: functional
T4 sequence (P9WHJ3 whole entry): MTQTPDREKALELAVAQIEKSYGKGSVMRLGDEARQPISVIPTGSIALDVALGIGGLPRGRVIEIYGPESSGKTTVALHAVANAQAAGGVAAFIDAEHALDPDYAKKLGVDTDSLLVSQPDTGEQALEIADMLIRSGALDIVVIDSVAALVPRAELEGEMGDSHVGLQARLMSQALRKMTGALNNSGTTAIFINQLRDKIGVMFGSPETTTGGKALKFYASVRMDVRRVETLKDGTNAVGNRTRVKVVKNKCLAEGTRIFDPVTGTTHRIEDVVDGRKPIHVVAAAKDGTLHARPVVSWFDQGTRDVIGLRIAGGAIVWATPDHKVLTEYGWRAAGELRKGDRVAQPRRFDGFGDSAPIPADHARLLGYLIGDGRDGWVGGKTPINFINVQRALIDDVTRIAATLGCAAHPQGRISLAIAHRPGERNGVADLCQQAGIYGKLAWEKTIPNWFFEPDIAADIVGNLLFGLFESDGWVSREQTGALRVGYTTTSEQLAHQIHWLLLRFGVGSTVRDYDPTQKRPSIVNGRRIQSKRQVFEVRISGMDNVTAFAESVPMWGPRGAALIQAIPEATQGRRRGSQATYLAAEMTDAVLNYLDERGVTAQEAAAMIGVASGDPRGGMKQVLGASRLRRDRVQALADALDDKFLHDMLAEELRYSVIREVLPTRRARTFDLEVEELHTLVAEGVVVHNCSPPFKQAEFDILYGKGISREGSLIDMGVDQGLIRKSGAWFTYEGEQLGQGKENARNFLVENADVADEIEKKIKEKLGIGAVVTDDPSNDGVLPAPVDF

Estrogen receptor beta = Estrogen receptor beta (Homo sapiens, UniProt Q92731);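 further: recombinant ER-beta bound to coactivator SRC1 peptide in presence of estradiol agonist; inhibitors block coactivator peptide binding and lower the FRET signal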
Sequence of Estrogen receptor beta (Q92731 whole entry): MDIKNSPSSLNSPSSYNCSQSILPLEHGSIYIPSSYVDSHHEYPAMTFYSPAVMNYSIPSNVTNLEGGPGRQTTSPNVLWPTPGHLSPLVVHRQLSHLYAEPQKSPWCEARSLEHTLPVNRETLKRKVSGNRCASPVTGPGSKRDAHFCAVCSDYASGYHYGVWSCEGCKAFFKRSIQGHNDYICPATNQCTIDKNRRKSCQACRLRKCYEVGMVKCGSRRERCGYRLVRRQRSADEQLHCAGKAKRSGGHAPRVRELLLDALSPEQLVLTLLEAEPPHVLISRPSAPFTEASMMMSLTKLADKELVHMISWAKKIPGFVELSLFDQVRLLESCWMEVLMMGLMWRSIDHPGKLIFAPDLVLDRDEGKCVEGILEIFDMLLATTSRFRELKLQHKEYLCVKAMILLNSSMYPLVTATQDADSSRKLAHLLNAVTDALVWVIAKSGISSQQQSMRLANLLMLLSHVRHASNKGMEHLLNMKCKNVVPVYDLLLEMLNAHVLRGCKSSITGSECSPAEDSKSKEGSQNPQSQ

[4] = target: Induced myeloid leukemia cell differentiation protein Mcl-1 (Homo sapiens, UniProt Q07820); type: functional
Sequence of Induced myeloid leukemia cell differentiation protein Mcl-1 (Q07820 whole entry): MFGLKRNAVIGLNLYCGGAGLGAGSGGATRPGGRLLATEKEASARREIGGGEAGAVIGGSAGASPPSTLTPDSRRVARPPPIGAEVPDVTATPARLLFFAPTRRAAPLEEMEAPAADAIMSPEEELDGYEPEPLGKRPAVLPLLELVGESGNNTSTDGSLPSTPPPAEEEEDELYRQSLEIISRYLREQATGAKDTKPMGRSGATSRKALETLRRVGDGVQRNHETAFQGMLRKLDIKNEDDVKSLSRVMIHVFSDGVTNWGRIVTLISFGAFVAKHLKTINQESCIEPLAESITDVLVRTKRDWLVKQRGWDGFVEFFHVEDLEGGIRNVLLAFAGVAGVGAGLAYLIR

Beta-galactosidase = Beta-galactosidase (Escherichia coli, UniProt Q8VNN2); assay: beta-galactosidase enzyme inhibitors and activators, dose response, artefact control for CCR6 antagonist project, biochemical, E. coli enzyme, set 3 (AID 504712); type: functional
Sequence of Beta-galactosidase (Q8VNN2 whole entry): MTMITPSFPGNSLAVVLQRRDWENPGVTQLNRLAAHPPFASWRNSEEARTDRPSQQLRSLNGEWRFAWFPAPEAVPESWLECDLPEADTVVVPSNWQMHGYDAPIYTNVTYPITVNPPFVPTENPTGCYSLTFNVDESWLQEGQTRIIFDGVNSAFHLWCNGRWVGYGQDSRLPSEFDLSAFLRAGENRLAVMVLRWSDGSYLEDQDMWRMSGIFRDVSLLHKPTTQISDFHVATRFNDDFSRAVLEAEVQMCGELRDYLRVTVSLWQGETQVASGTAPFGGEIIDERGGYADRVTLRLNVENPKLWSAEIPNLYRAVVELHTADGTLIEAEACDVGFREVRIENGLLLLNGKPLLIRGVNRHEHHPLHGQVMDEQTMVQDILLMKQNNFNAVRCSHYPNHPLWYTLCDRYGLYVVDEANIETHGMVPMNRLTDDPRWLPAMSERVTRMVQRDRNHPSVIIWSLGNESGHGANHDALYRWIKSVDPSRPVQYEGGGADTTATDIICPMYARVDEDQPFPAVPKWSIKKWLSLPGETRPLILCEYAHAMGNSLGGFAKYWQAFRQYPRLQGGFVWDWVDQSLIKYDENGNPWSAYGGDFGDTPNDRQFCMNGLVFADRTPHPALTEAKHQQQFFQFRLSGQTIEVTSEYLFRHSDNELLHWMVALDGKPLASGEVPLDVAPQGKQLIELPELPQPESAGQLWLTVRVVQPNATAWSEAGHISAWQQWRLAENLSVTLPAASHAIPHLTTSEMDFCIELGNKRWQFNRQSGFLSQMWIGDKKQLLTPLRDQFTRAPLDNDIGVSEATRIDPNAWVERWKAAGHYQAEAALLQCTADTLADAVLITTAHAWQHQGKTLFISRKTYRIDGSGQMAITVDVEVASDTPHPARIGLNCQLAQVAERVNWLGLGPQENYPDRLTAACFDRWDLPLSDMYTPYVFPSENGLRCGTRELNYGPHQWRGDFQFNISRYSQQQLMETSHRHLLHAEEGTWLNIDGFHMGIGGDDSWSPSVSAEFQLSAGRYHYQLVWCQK

Hexokinase HKDC1 = target: T5, Hexokinase HKDC1 (Homo sapiens, UniProt Q2TB90); assay: HKDC1 hexokinase inhibitors, dose response, biochemical, W721R variant (AID 504729); type: functional
T5 sequence (Q2TB90 whole entry): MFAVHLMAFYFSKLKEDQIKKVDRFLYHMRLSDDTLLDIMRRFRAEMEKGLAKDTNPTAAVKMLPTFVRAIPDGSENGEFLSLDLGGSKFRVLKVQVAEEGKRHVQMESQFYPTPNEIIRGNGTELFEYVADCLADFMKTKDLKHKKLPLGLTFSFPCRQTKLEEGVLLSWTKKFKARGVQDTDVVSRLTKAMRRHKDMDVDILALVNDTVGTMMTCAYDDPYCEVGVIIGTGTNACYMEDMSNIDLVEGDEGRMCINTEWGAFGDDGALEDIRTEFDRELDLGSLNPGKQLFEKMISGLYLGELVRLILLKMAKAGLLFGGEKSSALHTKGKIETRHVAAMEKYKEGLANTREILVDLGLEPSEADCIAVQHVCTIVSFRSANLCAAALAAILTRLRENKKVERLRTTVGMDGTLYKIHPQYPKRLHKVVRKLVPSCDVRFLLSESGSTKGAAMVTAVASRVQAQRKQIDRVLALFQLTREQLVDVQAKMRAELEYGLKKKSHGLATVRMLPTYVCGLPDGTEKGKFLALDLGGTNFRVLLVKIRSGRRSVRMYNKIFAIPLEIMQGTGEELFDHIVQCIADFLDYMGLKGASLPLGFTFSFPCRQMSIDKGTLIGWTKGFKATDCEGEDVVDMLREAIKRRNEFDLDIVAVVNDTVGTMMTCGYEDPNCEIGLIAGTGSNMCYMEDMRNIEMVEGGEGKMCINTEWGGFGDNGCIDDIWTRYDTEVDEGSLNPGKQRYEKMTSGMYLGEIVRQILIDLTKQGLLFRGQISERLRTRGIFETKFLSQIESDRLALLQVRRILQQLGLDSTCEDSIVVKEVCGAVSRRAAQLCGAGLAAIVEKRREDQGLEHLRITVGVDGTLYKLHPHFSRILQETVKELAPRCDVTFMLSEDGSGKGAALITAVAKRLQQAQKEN

Vero [5] = assay: Vero cell cytotoxicity, cytotoxicity control for flavivirus capping enzyme inhibitors (AID 588742); type: functional; conditions: Chlorocebus sabaeus
Genome polyprotein = Genome polyprotein (dengue virus type 2, UniProt P29990); assay: Dengue-2 NS5 methyltransferase inhibitors, primary screen, biochemical, confirmation dose response (AID 588689); type: functional
Sequence of Genome polyprotein (P29990 2492-3391 limits assumed): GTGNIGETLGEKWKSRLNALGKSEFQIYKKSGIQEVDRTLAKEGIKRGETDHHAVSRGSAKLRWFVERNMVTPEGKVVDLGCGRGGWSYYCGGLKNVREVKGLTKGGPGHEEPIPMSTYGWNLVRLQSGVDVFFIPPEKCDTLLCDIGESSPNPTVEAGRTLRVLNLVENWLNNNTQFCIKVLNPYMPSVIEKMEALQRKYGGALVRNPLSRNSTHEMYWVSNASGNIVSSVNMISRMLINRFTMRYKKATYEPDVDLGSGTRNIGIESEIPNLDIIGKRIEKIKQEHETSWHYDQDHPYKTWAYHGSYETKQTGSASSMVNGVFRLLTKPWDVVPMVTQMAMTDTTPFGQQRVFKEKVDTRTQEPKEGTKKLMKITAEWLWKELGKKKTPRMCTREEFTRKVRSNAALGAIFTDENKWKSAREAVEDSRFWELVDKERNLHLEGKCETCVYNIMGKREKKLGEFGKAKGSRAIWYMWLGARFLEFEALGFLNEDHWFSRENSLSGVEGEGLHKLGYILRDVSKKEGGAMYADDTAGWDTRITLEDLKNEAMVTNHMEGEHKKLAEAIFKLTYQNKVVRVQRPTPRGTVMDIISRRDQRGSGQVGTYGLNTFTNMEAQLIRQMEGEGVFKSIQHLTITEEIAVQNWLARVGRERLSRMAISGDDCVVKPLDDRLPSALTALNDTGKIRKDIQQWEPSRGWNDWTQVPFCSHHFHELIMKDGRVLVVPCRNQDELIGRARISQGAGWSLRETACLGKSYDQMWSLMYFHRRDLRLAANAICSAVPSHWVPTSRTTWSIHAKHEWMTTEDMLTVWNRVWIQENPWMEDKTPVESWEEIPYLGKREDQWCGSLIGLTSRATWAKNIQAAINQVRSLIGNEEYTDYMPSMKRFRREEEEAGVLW

[6] = target: T6, Polyadenylate-binding protein 1 (Homo sapiens, UniProt P11940); assay: PABP1 MLLE–PAM2 interaction inhibitors, dose response, miRNA deadenylation inhibitor project, biochemical, fluorescence polarization, Cy5-PAM2 peptide, secondary (AID 602260); type: functional; conditions: read-out: IC50_Mean
T6 sequence (P11940 whole entry): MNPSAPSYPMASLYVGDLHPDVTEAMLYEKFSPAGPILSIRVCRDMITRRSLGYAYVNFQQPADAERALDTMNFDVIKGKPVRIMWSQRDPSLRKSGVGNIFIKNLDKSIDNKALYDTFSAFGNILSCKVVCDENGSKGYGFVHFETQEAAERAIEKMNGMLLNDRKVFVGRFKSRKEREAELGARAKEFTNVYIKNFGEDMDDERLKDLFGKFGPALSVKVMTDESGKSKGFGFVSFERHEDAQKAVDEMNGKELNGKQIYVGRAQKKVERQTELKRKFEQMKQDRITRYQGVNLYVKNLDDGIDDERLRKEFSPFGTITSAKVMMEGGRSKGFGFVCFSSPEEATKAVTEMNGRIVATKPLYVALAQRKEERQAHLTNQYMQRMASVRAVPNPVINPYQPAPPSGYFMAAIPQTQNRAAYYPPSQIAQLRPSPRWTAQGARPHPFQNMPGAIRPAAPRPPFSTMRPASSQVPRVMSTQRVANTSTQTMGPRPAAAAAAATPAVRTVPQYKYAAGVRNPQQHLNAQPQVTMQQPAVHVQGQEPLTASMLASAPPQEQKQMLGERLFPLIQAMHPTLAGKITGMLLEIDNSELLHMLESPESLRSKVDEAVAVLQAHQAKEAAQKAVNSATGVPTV

[7] = target: T6, Polyadenylate-binding protein 1; assay: PABP1 MLLE–PAM2 binding inhibitor potency, dose response, biochemical, fluorescence polarization, FITC-PAM2 peptide (AID 602259); type: functional; conditions: read-out: IC50_Mean
[8] = M. tuberculosis H37Rv growth inhibitors, H37Rv strain (AID 1626); type: functional
[9] = cytotoxicity in HPDE-C7 cells, cell-based, fluorescence, HTS (AID 430); type: functional; conditions: Homo sapiens
[10] = cytotoxicity in KRAS-transformed pancreatic duct cells, primary screen, cell-based, fluorescence, HTS (AID 431); type: functional; conditions: Homo sapiens;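 further: cell line used: HPDE-C7K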
Prothrombin = Prothrombin (Homo sapiens, UniProt P00734); assay: Thrombin 1536 HTS Dose Response Confirmation. [Related pubchem assays: 1046 (Thrombin 1536 HTS; hits were confirmed in this assay)]; type: functional
Nonstructural protein 1 = Nonstructural protein 1 (Influenza A virus, UniProt Q194T2); type: functional, Influenza A virus (A/California/07/2009(H1N1))
Sequence of Nonstructural protein 1 (Q194T2 whole entry): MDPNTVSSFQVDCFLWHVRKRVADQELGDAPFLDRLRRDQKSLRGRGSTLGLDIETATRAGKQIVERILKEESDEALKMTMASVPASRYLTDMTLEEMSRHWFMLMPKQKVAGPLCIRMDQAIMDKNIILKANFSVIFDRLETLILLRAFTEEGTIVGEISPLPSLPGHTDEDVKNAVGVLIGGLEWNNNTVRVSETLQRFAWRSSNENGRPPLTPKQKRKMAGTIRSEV

[11] = target: Mitogen-activated protein kinase 10 (Homo sapiens, UniProt P53779); assay: Dose response biochemical screening assay for inhibitors of c-Jun N-Terminal Kinase 3 (JNK3). [Related pubchem assays: 746 ]
Sequence of Mitogen-activated protein kinase 10 (P53779 whole entry): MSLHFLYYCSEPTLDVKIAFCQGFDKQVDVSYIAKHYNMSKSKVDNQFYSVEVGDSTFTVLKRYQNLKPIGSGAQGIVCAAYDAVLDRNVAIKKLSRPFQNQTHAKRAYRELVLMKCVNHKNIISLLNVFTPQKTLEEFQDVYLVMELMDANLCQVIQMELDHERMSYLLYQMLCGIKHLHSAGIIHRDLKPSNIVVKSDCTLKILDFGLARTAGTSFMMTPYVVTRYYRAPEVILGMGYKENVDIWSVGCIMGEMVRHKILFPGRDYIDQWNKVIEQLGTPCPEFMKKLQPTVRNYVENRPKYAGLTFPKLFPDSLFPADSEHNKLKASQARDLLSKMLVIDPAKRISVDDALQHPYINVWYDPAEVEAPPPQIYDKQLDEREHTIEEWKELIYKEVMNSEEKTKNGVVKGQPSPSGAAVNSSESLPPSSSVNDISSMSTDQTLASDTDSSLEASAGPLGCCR

cells = type: functional
[12] = NIH-3T3 fibroblast cytotoxicity, dose response, cytotoxicity control, cell-based, fluorescence, Alamar Blue, secondary assay (AID 2327); type: functional;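 further: NIH-3T3 mouse fibroblasts cultured with fluconazole at 8 µg/mL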
[13] = C. albicans growth with fluconazole, confirmation, fluorescence, retest (AID 2467); type: functional, cell-based
Vero [14] = assay: cells; type: functional; conditions: Chlorocebus sabaeus

## Cc1ccc(S(=O)(=O)N2CCN(C(=O)CSc3ncc(C(F)(F)F)cc3Cl)CC2)cc1
Estrogen receptor
  IC50: > 50 µM (not active)

## COC1(OC)C(/C=C/c2ccc(Cl)cc2)C(C#N)(C#N)C1(OC)OC (stereo not given)
[1]
  IC50: 1.76 µM (active)
[2]
  EC50: 33.6 µM (active)
[3]
  AC50: 33.8 µM (active)
Protein RecA
  EC50: 2.45 µM (active)

## CSc1ccccc1NC(=O)c1ccccc1N(Cc1ccccc1)S(C)(=O)=O
Estrogen receptor beta
  IC50: > 50 µM (not active)

## CCOC(=O)/C=C(\C)Sc1cc(O)c2ccccc2c1O
[4]
  IC50: 10.5 µM (active)
Beta-galactosidase
  IC50: > 66.6 µM (inactive)
Hexokinase HKDC1
  IC50: 11.8 µM (active)
Vero [5]
  CC50: 22 µM (active)
Genome polyprotein
  IC50: 5.24 µM (active)
[6]
  IC50: > 66 µM (inactive)
[7]
  IC50: > 66 µM (inactive)

## Cc1ccccc1N1C(=O)NC(=O)/C(=C/Nc2ccc3c(c2)OCO3)C1=O
[8]
  IC50: > 100 µM (active)

## O=C(Oc1oc(-c2ccco2)nc1/C=N/c1ccccc1)c1ccco1
[9]
  EC50: > 20 µM (not active)
[10]
  EC50: > 20 µM (not active)
Prothrombin
  IC50: 1.32 µM (active)

## CCc1sc(N)nc1-c1ccccc1
[8]
  IC50: > 100 µM (active)

## Oc1ccc(O)c(Cc2nc3ccccc3[nH]2)c1
Hexokinase HKDC1
  IC50: 3.45 µM (active)

## O=C(Cc1cccs1)Nc1nncs1
Estrogen receptor beta
  IC50: 17 µM (active)

## CCOC(=O)c1c(N)sc(=S)c2c1CCC2
Estrogen receptor beta
  IC50: > 50 µM (not active)
Nonstructural protein 1
  IC50: > 100 µM (active)
[6]
  IC50: > 66 µM (inactive)
[7]
  IC50: > 66 µM (inactive)

## Cc1ccc(C(=O)/C=C\Nc2ccc(C)c(C)c2)cc1
[8]
  IC50: > 100 µM (active)

## CC12CNCC(C)(CNC1)C2O (stereo not given)
[9]
  EC50: > 20 µM (not active)
[10]
  EC50: > 20 µM (not active)

## Cc1ccc(S(=O)(=O)c2cc3c(=O)n4ccccc4nc3n(Cc3ccco3)c2=N)cc1C
[9]
  EC50: 18.8 µM (active)
[10]
  EC50: 17.9 µM (active)

## Cc1ccccc1NC(=O)c1[nH]cnc1C(=O)NCc1ccccc1
[11]
  IC50: > 31 µM (not active)
cells
  IC50: 10.3 µM (active)

## COc1ccccc1C(C[N+](=O)[O-])c1c(N)n(C)c(=O)n(C)c1=O (stereo not given)
[1]
  IC50: 1.61 µM (active)
[12]
  EC50: 9.19 µM (active)
[13]
  EC50: 6.01 µM (active)
Vero [14]
  CC50: 9.01 µM (active)

From ChEMBL document CHEMBL1201862, “PubChem BioAssay data set” (2004)
